Structures can show the parent of a compound that is named as a salt. Where two headings read alike, the source gives them in different places.
What was measured:
[1] = Test 3: Acute Toxicity, oral, mice; settings: mouse, in vivo, 7 days observation
Experimental: (§1) Certain test compounds of the invention were administered orally to SD-strain female or male rats each having a body weight of 150 to 200 g of ddN-strain male mice each having a body weight of about 20 g.

[2] = system: vertebral blood flow and femoral blood flow; assay: Test 1: Peripheral Vasodilating Effect; assay type: in vivo, Mongrel dogs; settings: 1 mg/kg i.v.; for Percentage of vertebral blood flow increase / Percentage of vertebral blood flow increase against percentage of femoral blood flow increase: anesthetized dogs, 5% aqueous tartaric acid solution, except compounds footnoted: (1) dimethylsulfoxide, (2) distilled water, (3) physiological saline
Experimental: Mongrel dogs of both sexes each weighing about 10 kg were anesthetized with sodium pentobarbital (35 mg/kg, i.v.). Artificial respiration was performed with room air. The vertebral blood flow and femoral blood flow were measured by an electromagnetic flowmeter (Nihon Koden, MF-27) with flow probes. The blood pressure and heart rate were measured at the same time. For intravenous administration of each compound (1 mg/kg), the cephalic vein was cannulated and the compound solution injected.

[3] = system: platelets (collagen-induced coagulation); assay: Test 2: Platelet Anti-coagulating Effect, collagen-induced coagulation; assay type: in vivo, Male Wistar rats; settings: Rattus norvegicus; for inhibition at 250 mg/kg: 250 mg/kg oral, collagen 17.4 ug/ml, read-out: Inhibition percentage, Collagen (17.4 ug/ml)
Experimental: (§2) Male Wistar rats each having a body weight of about 300 g were orally administered with the test compounds. With the lapse of 3 hours after administration of the compound, each rate was anesthetized with ether, and the blood was collected from its abdominal vein. […] The blood was centrifuged at 1,000 rpm for 10 minutes. The resultant platelet-rich plasma (PRP) was centrifuged for further 10 minutes at 3,000 rpm, thereby collecting a platelet-poor plasma (PPP).
(§3) ADP or collagen was added to the PRP obtained above to induce coagulation, and the thus coagulated platelets were measured by turbidimetry using a platelet aggregation tracer ("PAT-4A", tradename of Niko Kizai Kabushiki Kaisha, Japan). The coagulation inhibition percentage was determined by the following equation: [formula] A: Maximum percentage of coagulation when a compound was administered B: Maximum percentage of coagulation when physiological saline was administered

[4] = Test 3: Acute Toxicity, oral, rats; settings: rat, in vivo, 7 days observation
Experimental: as §1

[5] = system: platelets (ADP-induced coagulation); assay: Test 2: Platelet Anti-coagulating Effect, ADP-induced coagulation; assay type: in vivo, Male Wistar rats; settings: Rattus norvegicus, 250 mg/kg oral, rats, 3 hours after administration, ADP 2.7 uM, read-out: Inhibition percentage, ADP (2.7 uM)
Experimental: as §2, §3

[6] = footnote * of Table 1, dogs, in dimethylsulfoxide
[7] = 200 mg/kg oral, rats, 3 hours after administration, collagen 6.25 ug/ml, read-out: Inhibition percentage, Collagen (6.25 ug/ml)
[8] = rats, 3 hours after administration

With `C=CCOc1ccc(C(O)CN2CCN(C(c3ccccc3)c3ccccc3)CC2)cc1` (stereo not shown) [Inventive compound 11, 1-(4-Allyloxyphenyl)-2-(4-diphenylmethylpiperazinyl)ethanol.monohydrochloride] the LD50 at 168 h [1] was over 2000 mg/kg, the “Percentage of vertebral blood flow increase” value [2] was 93% and the “Percentage of vertebral blood flow increase against percentage of femoral blood flow increase” value (shortened to “Percentage … of femoral blood flow increase”) [2] was 2.0.

For `OC(CN1CCN(C(c2ccccc2)c2ccccc2)CC1)c1ccc(OCc2ccccc2)cc1` (stereo not shown) [Inventive compound 4, 1-(4-Benzyloxyphenyl)-2-(4-diphenylmethylpiperazinyl)ethanol.monohydrochloride], the LD50 at 168 h [1] was over 2000 mg/kg, the “Percentage of vertebral blood flow increase” value [2] was 90% and the “Percentage … of femoral blood flow increase” value [2] was 5.8.

For `OC(CN1CCN(C(c2ccccc2)c2ccccc2)CC1)c1ccc(OCc2ccccc2)cc1OCc1ccccc1` (stereo not shown) [Inventive compound 5, 1-(2,4-Dibenzyloxyphenyl)-2-(4-diphenylmethylpiperazinyl)ethanol.monohydrochloride], the LD50 at 168 h [1] was over 2000 mg/kg, the “Percentage of vertebral blood flow increase” value [2] was 62% and the “Percentage … of femoral blood flow increase” value [2] was 15.3. The “blood flow increase, course” value [2, 6] was “increased in two phases” and the “increased blood flow lasted for” value [2, 6] was 30 min.

In the case of `C(=C\c1ccccc1)/CN1CCN(C(c2ccccc2)c2ccccc2)CC1` [compound 5, Cinnarizine, reference compound], the “Percentage of vertebral blood flow increase” value [2] is reported as 60% and the “Percentage … of femoral blood flow increase” value [2] is reported as 2.5.

In the case of `C=CCOc1cc(OC)ccc1C(O)CN1CCN(C(c2ccccc2)c2ccccc2)CC1` (stereo not shown) [Inventive compound 12, 1-(2-Allyloxy-4-methoxyphenyl)-2-(4-diphenylmethylpiperazinyl)ethanol.dihydrochloride], the “Percentage of vertebral blood flow increase” value [2] is reported as 123% and the “Percentage … of femoral blood flow increase” value [2] is reported as 7.7.

With `COc1ccc(C(O)CN2CCN(C(c3ccccc3)c3ccccc3)CC2)cc1OC` (stereo not shown) [Inventive compound 8, 1-(3,4-Dimethoxyphenyl)-2-(4-diphenylmethylpiperazinyl)ethanol.dihydrochloride] the LD50 at 168 h [1] was 470 mg/kg, the “Percentage of vertebral blood flow increase” value [2] was 84% and the “Percentage … of femoral blood flow increase” value [2] was 15.3.

For `CC(=O)Oc1ccccc1C(=O)O` [Aspirin, reference compound], the inhibition at 200 mg/kg ([3]; read-out: inhibition against collagen) was 99%.

In the case of `OC(CN1CCN(C(c2ccccc2)c2ccccc2)CC1)c1ccccc1` (stereo not shown) [compound 2, 2-(4-Diphenylmethylpiperazinyl)-1-phenylethanol.dihydrochloride, reference compound], the “Percentage of vertebral blood flow increase” value [2] is reported as 25% and the “Percentage … of femoral blood flow increase” value [2] is reported as 1.3.

Compound `Oc1ccc(C(O)CN2CCN(C(c3ccccc3)c3ccccc3)CC2)cc1` (stereo not shown) [Inventive compound 1, 2-(4-Diphenylmethylpiperazinyl)-1-(4-hydroxyphenyl)ethanol.monohydrochloride] has an LD50 at 168 h [4] of over 2000 mg/kg, an inhibition at 200 mg/kg [3, 7] of 81% and an inhibition at 250 mg/kg [3, 8] of 25%. For the same compound, the inhibition at 250 mg/kg [5] was 28%, the “Percentage of vertebral blood flow increase” value [2] was 76% and the “Percentage … of femoral blood flow increase” value [2] was 3.6.

In the case of `COc1ccc(C(O)CN2CCN(C(c3ccccc3)c3ccccc3)CC2)c(OC)c1OC` (stereo not shown) [Inventive compound 9, 2-(4-Diphenylmethylpiperazinyl)-1-(2,3,4-trimethoxyphenyl)ethanol.dihydrochloride], the inhibition at 200 mg/kg [3, 7] is reported as 90%, the LD50 at 168 h [1] is reported as 1230 mg/kg and the “Percentage of vertebral blood flow increase” value [2] is reported as 124%. The “Percentage … of femoral blood flow increase” value [2] was 6.1.

With `CC(O)(CN1CCN(C(c2ccccc2)c2ccccc2)CC1)c1ccccc1` (stereo not shown) [compound 3, 2-(4-Diphenylmethylpiperazinyl)-1-methyl-1-phenylethanol.dihydrochloride, reference compound] the “Percentage of vertebral blood flow increase” value [2] was 20% and the “Percentage … of femoral blood flow increase” value [2] was 1.1.

For `C[C@@H]([C@@H](O)c1ccc(O)cc1)N1CCN(C(c2ccccc2)c2ccccc2)CC1` (relative stereo) [Inventive compound 3, dl-threo-2-(4-Diphenylmethylpiperazinyl)-1-(4-hydroxyphenyl)propanol.tartrate], the “Percentage of vertebral blood flow increase” value [2] was 60% and the “Percentage … of femoral blood flow increase” value [2] was 3.2.

With `COc1ccc(C(O)CN2CCN(C(c3ccccc3)c3ccccc3)CC2)c(OC)c1` (stereo not shown) [Inventive compound 7, 1-(2,4-Dimethoxyphenyl)-2-(4-diphenylmethylpiperazinyl)ethanol.dihydrochloride] the LD50 at 168 h [1] was 350 mg/kg, the “Percentage of vertebral blood flow increase” value [2] was 123% and the “Percentage … of femoral blood flow increase” value [2] was 5.8.

In the case of `COc1cc(C(O)CN2CCN(C(c3ccccc3)c3ccccc3)CC2)cc(OC)c1OC` (stereo not shown) [Inventive compound 10, 2-(4-Diphenylmethylpiperazinyl)-1-(3,4,5-trimethoxyphenyl)ethanol.monohydrochloride], the LD50 at 168 h [1] is reported as over 2000 mg/kg, the “Percentage of vertebral blood flow increase” value [2] is reported as 95% and the “Percentage … of femoral blood flow increase” value [2] is reported as 4.6.

In the case of `C[C@@H]([C@H](O)c1ccc(O)cc1)N1CCN(C(c2ccccc2)c2ccccc2)CC1` (relative stereo) [Inventive compound 2, dl-erythro-2-(4-Diphenylmethylpiperazinyl)-1-(4-hydroxyphenyl)propanol.1/2tartrate], the LD50 at 168 h [4] is reported as over 2000 mg/kg, the inhibition at 200 mg/kg [3, 7] is reported as 40% and the inhibition at 250 mg/kg [3, 8] is reported as 17%. For the same compound, the inhibition at 250 mg/kg [5] was 16%, the “Percentage of vertebral blood flow increase” value [2] was 66% and the “Percentage … of femoral blood flow increase” value [2] was 3.5.

In the case of `C[C@@H]([C@@H](O)c1ccc(OCc2ccccc2)cc1)N1CCN(C(c2ccccc2)c2ccccc2)CC1` (relative stereo) [Inventive compound 6, dl-threo-1-(4-Benzyloxyphenyl)-2-(4-diphenylmethylpiperazinyl)propanol.dihydrochloride], the “Percentage of vertebral blood flow increase” value [2] is reported as 96% and the “Percentage … of femoral blood flow increase” value [2] is reported as 8.5.

In the case of `CN(C)CCCOC1(Cc2ccccc2)CCCCCC1` [compound 4, Bencyclane fumarate, reference compound], the inhibition at 250 mg/kg [3, 8] is reported as 0%, the inhibition at 250 mg/kg [5] is reported as 0% and the “Percentage of vertebral blood flow increase” value [2] is reported as 67%. For the same compound, the “Percentage … of femoral blood flow increase” value [2] was 2.9.

With `Oc1ccccc1C(O)CN1CCN(C(c2ccccc2)c2ccccc2)CC1` (stereo not shown) [compound 1, 2-(4-Diphenylmethylpiperazinyl)-1-(2-hydroxyphenyl)ethanol.monohydrochloride, reference compound] the “Percentage of vertebral blood flow increase” value [2] was 26% and the “Percentage … of femoral blood flow increase” value [2] was 1.2.
